Like-named read-outs stand apart in the source and are kept apart here.

These results are taken from patent US12454529B2, “Piperazine cyclic ureas” (SIRONAX LTD., priority 2020, dated 2025).

For the test, the system named is HT-29 cells. Put plainly: HT-29 cell necrosis/necroptosis inhibition (TNF-α + SMAC mimetic + zVAD-FMK; CellTiter-Glo cell viability). Format: cell-based. The essentials: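 HT-29 cells (~5,000/well) were switched to FBS-free McCOY's 5A holding TNF-α (10 ng/ml), SMAC mimetic (6 μM) and zVAD-FMK (10 μM), then dosed with a 10-point 1:3 series for 20 h at 37 °C. CellTiter-Glo luminescence gave viability; geometric mean EC50 from duplicates.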

[1] abbreviates: Homo sapiens, HT-29 cells, TNF-α 10 ng/ml + SMAC mimetic 6 μM + zVAD-FMK 10 μM, 20 hours, geometric mean, 10 points in duplicate, read-out: EC50 (Cell activity; Necrosis/Necroptosis Inhibitory Activity, Compounds 143-323).
Where [2] appears, read: Homo sapiens, HT-29 cells, TNF-α 10 ng/ml + SMAC mimetic 6 μM + zVAD-FMK 10 μM, 20 hours, geometric mean, 10 points in duplicate, read-out: EC50 (Cell activity; Necrosis/Necroptosis Inhibitory Activity, Compounds 1-142).
Where [3] appears, read: Homo sapiens, HT-29, 20 h, read-out: EC50 (Cell activity; Necrosis/Necroptosis Inhibitory Activity, Compounds 1-142).

What is called EC50 is the concentration at which the effect is half-maximal. `Cc1nc(C)n(-c2nc(N3CCN(C(=O)N4N=CCC4c4cnc(C)s4)CC3)ncc2F)n1` (stereo not shown) [Compound 214, (4-(4-(3,5-dimethyl-1H-1,2,4-triazol-1-yl)-5-fluoropyrimidin-2-yl)piperazin-1-yl)(5-(2-methylthiazol-5-yl)-4,5-dihydro-1H-pyrazol-1-yl)methanone]: the EC50 (HT-29 cells, TNF-α 10 ng/ml + SMAC mimetic 6 μM + zVAD-FMK 10 μM, 20 hours, geometric mean, 10 points in duplicate, read-out: EC50 (Cell activity; Necrosis/Necroptosis Inhibitory Activity, Compounds 143-323)) fell in the range of 0.1 to 100 nM.

For the molecule `N#Cc1cc(F)cc([C@@H]2CC=NN2C(=O)N2CCN(c3nc(-n4cc(C#N)cn4)ncc3F)CC2)c1` [Compound 219, (S)-1-(4-(4-(5-(3-cyano-5-fluorophenyl)-4,5-dihydro-1H-pyrazole-1-carbonyl)piperazin-1-yl)-5-fluoropyrimidin-2-yl)-1H-pyrazole-4-carbonitrile], the 50% effective concentration (EC50) under setting [1] fell in the range of 0.1 to 100 nM.

Take `CCn1cnn(-c2nc(N3CCN(C(=O)N4N=CC[C@H]4c4cc(F)cc(C#N)c4)CC3)ncc2F)c1=O` [Compound 200, (S)-3-(1-(4-(4-(4-ethyl-5-oxo-4,5-dihydro-1H-1,2,4-triazol-1-yl)-5-fluoropyrimidin-2-yl)piperazine-1-carbonyl)-4,5-dihydro-1H-pyrazol-5-yl)-5-fluorobenzonitrile]: the EC50 under setting [1] lay within 0.1 to 100 nM.

With `Cc1cnn(C)c1-c1nc(N2CCN(C(=O)N3N=CC[C@H]3c3cc(F)cc(F)c3)CC2)sc1CO` [Compound 267, (S)-(5-(3,5-difluorophenyl)-4,5-dihydro-1H-pyrazol-1-yl)(4-(4-(1,4-dimethyl-1H-pyrazol-5-yl)-5-(hydroxymethyl)thiazol-2-yl)piperazin-1-yl)methanone], under setting [1], the concentration for a half-maximal effect (EC50) is 1000 to 10000 nM.

Turning to `Cc1nc(C)n(-c2nc(N3CCN(C(=O)N4N=CCC4c4nccs4)CC3)ncc2F)n1` (stereo not shown) [Compound 217, (4-(4-(3,5-dimethyl-1H-1,2,4-triazol-1-yl)-5-fluoropyrimidin-2-yl)piperazin-1-yl)(5-(thiazol-2-yl)-4,5-dihydro-1H-pyrazol-1-yl)methanone], the EC50 under setting [1] lay within 0.1 to 100 nM.

As for `Cc1nc(C)n(-c2cc(N3CCN(C(=O)N4N=CC[C@H]4c4cc(F)cc(F)c4)CC3)ncn2)n1` [Compound 90, (S)-(5-(3,5-difluorophenyl)-4,5-dihydro-1H-pyrazol-1-yl)(4-(6-(3,5-dimethyl-1H-1,2,4-triazol-1-yl)pyrimidin-4-yl)piperazin-1-yl)methanone], the 50% effective concentration (EC50) under setting [2] is 0.1 to 100 nM.

For `Cc1nc(C)n(-c2nc(N3CCN(C(=O)N4N=CCC4c4coc(C)n4)CC3)ncc2F)n1` (stereo not shown) [Compound 211, (4-(4-(3,5-dimethyl-1H-1,2,4-triazol-1-yl)-5-fluoropyrimidin-2-yl)piperazin-1-yl)(5-(2-methyloxazol-4-yl)-4,5-dihydro-1H-pyrazol-1-yl)methanone], the EC50 under setting [1] was 0.1 to 100 nM.

On to `Cc1cnn(C)c1-c1ncc(F)c(N2CCN(C(=O)N3N=CC[C@H]3c3cc(F)cc(C#N)c3)CC2)n1` [Compound 268, (S)-3-(1-(4-(2-(1,4-dimethyl-1H-pyrazol-5-yl)-5-fluoropyrimidin-4-yl)piperazine-1-carbonyl)-4,5-dihydro-1H-pyrazol-5-yl)-5-fluorobenzonitrile], for which, under setting [1], the EC50 lay within 0.1 to 100 nM.

As for `Cc1nn(-c2nc(N3CCN(C(=O)N4N=CC[C@H]4c4cc(F)cc(C#N)c4)CC3)ncc2F)c(C)c1[N+](=O)[O-]` [Compound 191, (S)-3-(1-(4-(4-(3,5-dimethyl-4-nitro-1H-pyrazol-1-yl)-5-fluoropyrimidin-2-yl)piperazine-1-carbonyl)-4,5-dihydro-1H-pyrazol-5-yl)-5-fluorobenzonitrile], under setting [1], the EC50 lay within 0.1 to 100 nM.

As for `Cc1cnc([C@@H]2CC=NN2C(=O)N2CCN(c3ncc(F)c(-c4nc(C#N)nn4C)n3)CC2)s1` [Compound 151, (S)-5-(5-fluoro-2-(4-(5-(5-methylthiazol-2-yl)-4,5-dihydro-1H-pyrazole-1-carbonyl)piperazin-1-yl)pyrimidin-4-yl)-1-methyl-1H-1,2,4-triazole-3-carbonitrile], the EC50 under setting [1] lay in the range of 0.1 to 100 nM.

Turning to `Cc1nnnn1-c1ccnc(N2CCN(C(=O)N3N=CC[C@H]3c3cncc(F)c3)CC2)n1` [Compound 26, (S)-(5-(5-fluoropyridin-3-yl)-4,5-dihydro-1H-pyrazol-1-yl)(4-(4-(5-methyl-1H-tetrazol-1-yl)pyrimidin-2-yl)piperazin-1-yl)methanone], under setting [3], the concentration for a half-maximal effect (EC50) lay in the range of 0.1 to 100 nM.

Turning to `O=C(N1CCN(c2nccc(-c3cc[nH]n3)n2)CC1)N1N=CC[C@H]1c1cncc(F)c1` [Compound 36, (S)-(4-(4-(1H-pyrazol-3-yl)pyrimidin-2-yl)piperazin-1-yl)(5-(5-fluoropyridin-3-yl)-4,5-dihydro-1H-pyrazol-1-yl)methanone], the EC50 under setting [2] lay in the range of 0.1 to 100 nM.

In the case of `O=C(N1CCN(c2ncc(F)c(-n3nccc3C(F)(F)F)n2)CC1)N1N=CC[C@H]1c1cncc(F)c1` [Compound 308, (S)-(4-(5-fluoro-4-(5-(trifluoromethyl)-1H-pyrazol-1-yl)pyrimidin-2-yl)piperazin-1-yl)(5-(5-fluoropyridin-3-yl)-4,5-dihydro-1H-pyrazol-1-yl)methanone], the EC50 under setting [1] lay in the range of 0.1 to 100 nM.

Take `Cc1nn(-c2ccnc(N3CCN(C(=O)N4N=CC[C@H]4c4cc(F)cc(C#N)c4)CC3)n2)c(C)c1C(N)=O` [Compound 276, (S)-1-(2-(4-(5-(3-cyano-5-fluorophenyl)-4,5-dihydro-1H-pyrazole-1-carbonyl)piperazin-1-yl)pyrimidin-4-yl)-3,5-dimethyl-1H-pyrazole-4-carboxamide]: under setting [1], the half-maximal effective concentration (EC50) is 0.1 to 100 nM.

Regarding `Cn1cc(-c2nc(N3CCN(C(=O)N4N=CC[C@H]4c4cc(F)cc(F)c4)CC3)ncc2F)ccc1=O` [Compound 89, (S)-5-(2-(4-(5-(3,5-difluorophenyl)-4,5-dihydro-1H-pyrazole-1-carbonyl)piperazin-1-yl)-5-fluoropyrimidin-4-yl)-1-methylpyridin-2(1H)-one], the EC50 under setting [2] lay in the range of 0.1 to 100 nM.

As for `Cc1nc(C)n(-c2ncc(F)c(N3CCN(C(=O)N4N=CC[C@H]4c4cc(F)cc(F)c4)CC3)n2)n1` [Compound 257, (S)-(5-(3,5-difluorophenyl)-4,5-dihydro-1H-pyrazol-1-yl)(4-(2-(3,5-dimethyl-1H-1,2,4-triazol-1-yl)-5-fluoropyrimidin-4-yl)piperazin-1-yl)methanone], the concentration for a half-maximal effect (EC50) under setting [1] was in the range of 0.1 to 100 nM.

Regarding `Cc1nnnn1-c1ccnc(N2CCN(C(=O)N3N=CC[C@H]3c3cncc(C#N)c3)CC2)n1` [Compound 99, (S)-5-(1-(4-(4-(5-methyl-1H-tetrazol-1-yl)pyrimidin-2-yl)piperazine-1-carbonyl)-4,5-dihydro-1H-pyrazol-5-yl)nicotinonitrile], the concentration giving a half-maximal response (EC50) under setting [3] is 0.1 to 100 nM.

As for `Cc1nnnn1-c1nc(N2CCN(C(=O)N3N=CC[C@H]3c3cc(F)cc(C#N)c3)CC2)ncc1F` [Compound 59, (S)-3-fluoro-5-(1-(4-(5-fluoro-4-(5-methyl-1H-tetrazol-1-yl)pyrimidin-2-yl)piperazine-1-carbonyl)-4,5-dihydro-1H-pyrazol-5-yl)benzonitrile], under setting [2], the half-maximal effective concentration (EC50) lay within 0.1 to 100 nM.

On to `Cc1c(N)nn(C)c1-c1ccnc(N2CCN(C(=O)N3N=CC[C@H]3c3cc(F)cc(C#N)c3)CC2)n1` [Compound 154, (S)-3-(1-(4-(4-(3-amino-1,4-dimethyl-1H-pyrazol-5-yl)pyrimidin-2-yl)piperazine-1-carbonyl)-4,5-dihydro-1H-pyrazol-5-yl)-5-fluorobenzonitrile], for which the EC50 under setting [1] lay within 0.1 to 100 nM.

In the case of `Cc1nn(-c2nc(N3CCN(C(=O)N4N=CC[C@H]4c4cc(F)cc(C#N)c4)CC3)ncc2F)c(C)c1NC(=O)C1CC1` [Compound 192, (S)—N-(1-(2-(4-(5-(3-cyano-5-fluorophenyl)-4,5-dihydro-1H-pyrazole-1-carbonyl)piperazin-1-yl)-5-fluoropyrimidin-4-yl)-3,5-dimethyl-1H-pyrazol-4-yl)cyclopropanecarboxamide], under setting [1], the EC50 lay within 0.1 to 100 nM.

As to `O=C(N1CCN(c2nccc(-c3cc[nH]n3)n2)CC1)N1N=CC[C@H]1c1ccccc1` [Compound 39, (S)-(4-(4-(1H-pyrazol-3-yl)pyrimidin-2-yl)piperazin-1-yl)(5-phenyl-4,5-dihydro-1H-pyrazol-1-yl)methanone], the EC50 under setting [2] fell in the range of 0.1 to 100 nM.

Consider `Cc1nc(C)n(-c2nc(N3CCN(C(=O)N4N=CC[C@H]4c4cc(F)cc(F)c4F)CC3)ncc2F)n1` [Compound 264, (S)-(4-(4-(3,5-dimethyl-1H-1,2,4-triazol-1-yl)-5-fluoropyrimidin-2-yl)piperazin-1-yl)(5-(2,3,5-trifluorophenyl)-4,5-dihydro-1H-pyrazol-1-yl)methanone], for which, under setting [1], the concentration giving a half-maximal response (EC50) lay in the range of 0.1 to 100 nM.

On to `Cc1cnn(C)c1-c1nc(N2CCN(C(=O)N3N=CC[C@H]3c3cc(F)cc(C#N)c3)CC2)ncc1F` [Compound 62, (S)-3-(1-(4-(4-(1,4-dimethyl-1H-pyrazol-5-yl)-5-fluoropyrimidin-2-yl)piperazine-1-carbonyl)-4,5-dihydro-1H-pyrazol-5-yl)-5-fluorobenzonitrile], for which the concentration for a half-maximal effect (EC50) under setting [2] lay within 0.1 to 100 nM.

For the molecule `O=C(N1CCN(c2ncc(F)c(-c3[nH]nnc3C(F)(F)F)n2)CC1)N1N=CC[C@H]1c1cc(F)cc(F)c1` [Compound 105, (S)-(5-(3,5-difluorophenyl)-4,5-dihydro-1H-pyrazol-1-yl)(4-(5-fluoro-4-(4-(trifluoromethyl)-1H-1,2,3-triazol-5-yl)pyrimidin-2-yl)piperazinyl)methanone], under setting [2], the concentration giving a half-maximal response (EC50) is 0.1 to 100 nM.

With `Cc1csc(C2CC=NN2C(=O)N2CCN(c3cc(-c4c(C)cnn4C)ncc3F)CC2)n1` (stereo not shown) [Compound 157, (4-(2-(1,4-dimethyl-1H-pyrazol-5-yl)-5-fluoropyridin-4-yl)piperazin-1-yl)(5-(4-methylthiazol-2-yl)-4,5-dihydro-1H-pyrazol-1-yl)methanone], under setting [1], the concentration giving a half-maximal response (EC50) lay in the range of 100 to 1000 nM.
